Numbered stars: 1 amine (or outer) side, 2 acyl side, 3 side chain; on linkers, the order of the positions; unused ones are H or OH. Bridge positions count the residues as written; N and C are the ends. Square brackets hold non-standard residues; d marks the D form. Peptide text beside a SMILES is read from it. Phe(4-F) = N[C@@H](Cc1ccc(F)cc1)C(=O)O; X1 = CCCCCCC[C@H](N[*:1])C(=O)[*:2]; Nle = CCCC[C@H](N)C(=O)O; X2 = C(C[*:1])C[*:2]; βAla = NCCC(=O)O Some results are limits rather than exact numbers.

A short description of data set [1]: Pharmacokinetics after intravenous injection. It is filed as in vivo, mouse. Particulars: 10 mg/kg i.v., LC-MS/MS. The protocol: (§1) Experimental procedures that involved animals and their care were conducted in compliance with the Guide for the Care and Use of Laboratory Animals[15] and ARRIVE guidelines[16],[17]. Animal experiments were approved by the Animal Care and Use Committee of Osaka University (approval No. DouyakuR01-3–1) and conducted at Osaka University in accordance with the guidelines. LC–MS/MS data were obtained using a Xevo TQ-S mass spectroscopy system (Waters Corp., Milford, MA, USA) connected to an ACQUITY UPLC system (Waters) equipped with a BEH C18 column (1.7 μm, 2.1 × 50 mm, Waters). Mobile phase A was 0.1% formic acid in water and mobile phase B was 0.1% formic acid in acetonitrile. The gradient elution profile was 2% B at 0 min to 98% B at 1.8 min, and the flow rate was 0.5 mL/min.
For pharmacokinetics studies, KS-58 was dissolved in saline and administered intravenously to female BALB/c mice at 10 mg/kg. Serial blood samples (20 μL) were collected from the tail vein using heparinized tips at 7.5, 15, 30, 60, 120, 240, 320, and 1440 min after KS-58 administration. Aliquots (5 μL) of plasma obtained from each blood sample were treated with 50 μL acetonitrile and the organic layer was injected onto the LC–MS/MS system. Pharmacokinetic parameters were obtained by fitting the plasma concentration–time data to a noncompartmental model using PKPlus software (Northern Science Consulting Inc, Sapporo, Japan).

The nature of data set [2]: Stability in mouse whole blood. Conditions: fresh whole blood, 37 °C, 2 h incubation, LC-MS/MS, read-out: fraction of initial concentration intact in whole blood. It is filed as in vitro ADME. The protocol:
as §1
(§2) For evaluation of stability, KS-58 was incubated with commercial hepatic microsomes (XenoTech Ltd, KS, USA) in X medium supplemented with nicotinamide adenine dinucleotide phosphate for 10 and 60 min at 37 °C. The fraction (%) remaining in the medium was determined using the LC–MS/MS system (Waters). We also examined the fraction (%) remaining in fresh mouse blood after 60 and 120 min of incubation at 37 °C using the same LC–MS/MS system.

The nature of data set [3]: Systemic safety in CT26 tumor-bearing mice (body and organ weights, kidney and liver histomorphology). It is filed as in vivo, mouse. The protocol:
Experimental procedures that involved animals and their care were conducted in compliance with the Guide for the Care and Use of Laboratory Animals[15] and ARRIVE guidelines[16],[17]. Animal experiments were approved by Animal Care and Use Committee of UNITECH Co. Ltd. (Kashiwa, Japan) (approval No. AGR IMF-210415A-30) and conducted at UNITECH in accordance with the guidelines. To establish subcutaneous allograft tumors, 1 × 10^6 CT26 cells/100 µL were subcutaneously injected into the left groin region of BALB/cCrSlc female mice (7 weeks old; Japan SLC, Inc., Shizuoka, Japan). Immediately before treatment, KS-58 was dissolved in DMSO and then diluted tenfold in normal saline. Tumor-baring mice in vehicle control, KS-58 (low), and KS-58 (high) groups were injected intravenously with vehicle (1:10 DMSO to saline, v/v), 10 mg/kg KS-58 solution, or 40 mg/kg KS-58 solution, respectively, once every 2 days for 17 days (n = 8 mice per major group, n = 3 mice per satellite group) (Fig. 1B). For anti-PD-1 monotherapy or combination treatment, GoInVivo Purified anti-mouse PD-1 (CD279, Cat.#114114, BioLegend, San Diego, CA, USA) was dissolved in PBS and injected intraperitoneally at 50 mg/kg on days 6, 8, and 10 (n = 8 mice in major groups, n = 3 in satellite groups). Tumor growth rate was recorded on day 1, 4, 8, 11, 15, and 17 by measuring the major and minor axes with a digital caliper. Measurements were transformed into tumor volumes using the formula tumor volume (mm^3) = major axis × minor axis^2 × 0.5. Tumors (with surrounding skin), liver, and kidneys were collected from satellite groups on day 15, fixed in formalin, and then maintained in 70% ethanol for histological analyses. Tumor, liver, and kidneys were collected from major groups on day 17 within 3 h of the last injection and weighed. The tumors were subsequently frozen in liquid nitrogen and stored at − 80 °C until homogenization for Western blotting.
Tumors, livers, and kidneys were harvested from mice and fixed with 10% neutral-buffered formalin. […]

The conditions of data set [4]: estimated using RP-HPLC; cited from earlier work.
Data set [5] is described as follows: Translocation to blood cells. Particulars: whole blood (Fig. 4D). It is filed as in vitro ADME.
Data set [6] is described as follows: Stability in human liver microsomes. Conditions: human hepatic microsomes (XenoTech), with NADP cofactor, 37 °C, 1 h incubation, LC-MS/MS, read-out: fraction of initial concentration remaining in human liver microsomes. It is filed as in vitro ADME. The protocol: as §1, §2
In general terms: Liver microsomes are a subcellular fraction often used to study metabolism.

Data set [7] can be described thus: Stability in mouse liver microsomes. Particulars: mouse hepatic microsomes (XenoTech), with NADP cofactor, 37 °C, 1 h incubation, LC-MS/MS, read-out: fraction of initial concentration remaining in mouse liver microsomes. It is filed as in vitro ADME. The protocol:
as §1, §2

The nature of data set [8]: Plasma protein binding (dialysis). It is filed as in vitro ADME. Particulars: dialysis of plasma against PBS pH 7.4, 5 h, 37 °C, LC-MS/MS, human and mouse plasma (Fig. 4E). The protocol:
as §1
For evaluation of plasma protein binding, the plasma compartment containing KS-58 was dialyzed against PBS (pH 7.4) for 5 h at 37 °C and the concentrations remaining in each compartment were quantified by LC–MS/MS.

The mark [9] stands for this setting: satellite groups, day 15, HE staining, n = 3.

In general, half-life refers to how long it takes for the measured level to halve. For `CCCCCCC[C@@H]1NC(=O)[C@@H]2CSCCCSC[C@@H](NC(=O)[C@H](Cc3c[nH]c4ccccc34)NC(=O)[C@@H]3CCCN3C(=O)[C@H](CC(=O)O)NC(=O)[C@H](Cc3ccc(F)cc3)NC(=O)[C@H](CO)NC1=O)C(=O)NCCC(=O)N1CCC[C@H]1C(=O)N[C@@H](CCCC)C(=O)N2` [KS-58] (cyclo([βAla]P[Nle]C[X1]S[Phe(4-F)]DPW[dC]); linker 4-11 via X2), the “time at which plasma concentration decreased to ~50% of the initial concentration” value in data set [1] (mice) is listed as “about 30 min”. In addition, the “plasma concentration after 4 h” value in data set [1] (mice, limit of detection ~250 nM) was “below the limit of detection”. In data set [1] (mouse, iv, female BALB/c mice, plasma, noncompartmental, mean ± SD, n = 3), the half-life is ~30 min. Besides, the remaining at 2 h in data set [2] amounted to 92.3%. Further, the “body weight gain/loss and weights of liver and kidney vs vehicle controls” value in data set [3] (KS-58 10 or 40 mg/kg i.v. every 2 days for 17 days, n = 8) was “neither body weight gain/loss (Fig. 2B) nor the weights of liver and kidney (Fig. 2C) were significantly altered”. Besides, the kidney histomorphology entry in data set [3] (setting [9]) is “No obvious histological changes in any of the nephron segments”. The liver histomorphology result in data set [3] (setting [9]) was “hepatocellular hypertrophy with cytoplasmic eosinophilic change”. Also, the “half-life in whole blood” value in data set [4] is recorded as ~ 60 min. The “translocation into blood cells” value in data set [5] was “a substantial fraction of KS-58 was translocated into blood cells”. Moreover, the remaining at 1 h in data set [6] amounted to 77%; in data set [7] it was 46.2%. Also, the “fraction bound to plasma proteins” value in data set [8] is “more than 90%”. In addition, the fraction unbound at 5 h in data set [8] (read-out: free fraction in plasma) was < 0.1.
